BindingDB's records for doi:10.1016/s0960-894x(98)00670-2 (Vertex Pharmaceuticals, 1999)

Biological target: T1, Gag-Pol polyprotein [489-587] (Human immunodeficiency virus 1, UniProt P04585)
T1 construct: 489-587
Assay: ChEBML_157552
Description: Compound was assayed for inhibition against HIV protease activity

Compound: COc1ccc(S(=O)(=O)N(CC2CCCC2)C[C@@H](O)CN(CCc2ccccc2)C(=O)OCc2cccnc2)cc1 [{(S)-3-[Cyclopentylmethyl-(4-methoxy-benzenesulfonyl)-amino]-2-hydroxy-propyl}-phenethyl-carbamic acid pyridin-3-ylmethyl ester]
- Ki: 17 nM
